Consider 3 compounds from patent US20140228407A1, “TETRA-PYRIDINE COMPOUNDS AND COMPOSITION FOR PROTECTING CELLS, TISSUES AND ORGANS AGAINST ISCHEMIA-REPERFUSION INJURY” (YISSUM RESEARCH DEVELOPMENT COMPANY OF THE HEBREW …, priority 2011, published 2014).

Marks after values point to notes of the source that are not given here.

For data set [1], the system named is neonate rat cardiomyocyte cells. Briefly: Hypoxia/ischemia in neonatal rat cardiomyocyte cultures, LDH release. It counts as cell-based. As to conditions: 30, 100 and 300 nm compound vs 1 μM TPEN; 150 min ischemia then reoxygenation. Here is the method: Rat hearts (1-2 days old) were sterilely removed and bathed three times in Ca^2+- and Mg^2+-free PBS to remove excess blood cells. The hearts were minced to small fragments and then agitated in a proteolytic enzyme-RDB solution prepared from a fig tree extract as described previously (Brik et al., 1990; Shneyvays et al., 2001). The RDB was diluted 1:200 in PBS at 25° C. for a few cycles of 10 min each. The supernatant suspension containing dissociated cells, to which medium containing 10% horse serum was added, was centrifuged at 500 g for 5 min. After centrifugation, the supernatant phase was discarded, and cells were resuspended in Dulbecco's modified Eagle medium supplemented with 10% heat-inactivated horse serum and 0.5% chick embryo extract. Cell suspensions were diluted to 1×10^6 cells/ml, and 300 μl was placed in 24 well plates (4 plates) collagen/gelatin-coated plastic culture dishes. Cultures were incubated in a humidified atmosphere of 5% CO2 and 95% air at 37° C. […] The growth medium was replaced every 3 days. The experiments were performed in vitro on these cardiomyocyte cultures after 3 to 5 days. […]
LDH activity was determined using LDH-L kit (Thermo Trace, Melbourne, Australia) within the cardiac cell medium (PBS). […] LDH enzymatic activity was measured in a spectrophotometer at a wavelength of 340 nm at 30° C. […]
For orientation: LDH in the medium is a marker of cell lysis.

The subject of data set [2] is model of ischemia/reperfusion in the CD rat. In words: Rat model of ischemia/reperfusion, infarct analysis (Phase B). It is filed as in vivo. As to conditions: positive control 5000 IU/kg bolus intravenous injection. On the procedure: This study was conducted to evaluate the effects of the Compound #6 on cardiac function, infarct size, and Troponin I levels in a model of ischemia/reperfusion in the CD® (CR1CD® (SD)) rat. Phase A was conducted for toxicity evaluation purposes. In Phase B (the efficacy phase), two treatment groups of eight male rats were administered Compound #6 at dose levels of 0.2 and 2 mg/kg via intravenous infusion following myocardial infarction. The 2 mg/kg dose of Compound #6 was administered intravenously via a slow infusion starting 3 to 14 minutes prior to reperfusion and continuing for 20 minutes to 20 minutes and 32 seconds, which was approximately 6 to 17 minutes after reperfusion (depending on the infusion start time). The 0.2 mg/kg dose of Compound #6 was administered intravenously via a slow infusion starting 10 minutes prior to reperfusion and continuing for 30 minutes to 30 minutes and 30 seconds, which was approximately 20 minutes after reperfusion.
The animals were placed on mechanical ventilation and […]. Once anesthetized, the animal was placed in a right lateral recumbency, an arterial catheter or polyethylene tube was placed in the carotid artery for monitoring blood pressure and a thoracotomy was performed. The left coronary artery (LCA) was identified. A ligature was placed around the LCA and the vessel was ligated. The LCA was maintained occluded for 29 to 43 minutes. Occlusion of the vessel was verified via blanching of the heart and via ST interval changes. At the end of the occlusion period, the knot was loosened leaving the ligature in place, and the vessel was allowed to reperfuse for 3 hours 27 minutes to 4 hours 51 minutes. Following infarct, a chest tube was placed, the deep and superficial muscle layers were sutured at the surgical incision, and the skin was closed with staples. The chest tube was removed after spontaneous respiration was established. In Phase A, the animals were recovered from anesthesia and evaluated for 4 days. In Phase B, animals were maintained under anesthesia for 3 hours 27 minutes to 4 hours 51 minutes prior to being submitted to necropsy.
(§1) In Phase B, Compound #6 was administered once on Day 0 via intravenous infusion at dose levels of 0.2 and 2 mg/kg. The doses were administered at a dose volume of 1 mL/kg (0.05 [2 mg/kg] or 0.033 [0.2 mg/kg] mL/kg/minute). Two control groups received the vehicle (saline) or the vehicle for Compound #6 (10% (w/v) 2-hydroxypropyl-beta-cyclodextrin and 100 mM sodium chloride in deionized water) in the same manner as the 2 mg/kg treated group. The vehicles and 2 mg/kg Compound #6 were administered intravenously via a slow infusion starting 3 to 14 minutes prior to reperfusion and continuing for 20 minutes to 20 minutes and 32 seconds, which was approximately 6 to 17 minutes after reperfusion (depending on the infusion start time). The 0.2 mg/kg Compound #6 was administered intravenously via a slow infusion starting 10 minutes prior to reperfusion and continuing for 30 minutes to 30 minutes and 30 seconds, which was approximately 20 minutes after reperfusion. The positive control article, Erythropoietin, was administered at 5000 IU/kg via a bolus intravenous injection. The positive control article dose was administered at a dose volume of 2.5 mL/kg. The positive control was administered via a 3 to 60 second injection at 5 minutes prior to reperfusion.
After LAD reperfusion (4 hours), the animals were euthanized by an intraperitoneal injection of sodium pentobarbital followed by exsanguination via severing the abdominal vena cava. The heart was flushed with heparinized Lactated Ringers Solution (LRS) until clear of blood and the LAD was tied off using the same ligature used to occlude the vessel and Evan Blue dye was injected. The heart was weighed and breadloafed (4-5 sections per animal). […]

The test system is the same in data set [3]. Briefly: Rat model of ischemia/reperfusion, cardiovascular monitoring (blood pressure, heart rate; Phase B). It is filed as in vivo. As to conditions: positive control 5000 IU/kg bolus; within 5-10 minutes of reperfusion. Here is the method: The animals in Phase B were monitored for selected cardiovascular endpoints from at least 15 minutes prior to acute myocardial infarction until at approximately 1 hour post reperfusion. Blood samples for the evaluation of Troponin I were collected from all surviving Phase B animals prior to coronary artery occlusion and at termination. At study termination, the Phase B animals were submitted to necropsy for limited necropsy examinations and infarct analysis.
as §1
In Phase B, animals were anesthetized for monitoring of selected cardiovascular parameters. For experimentation, the blood pressure catheter implanted in the carotid artery was attached to an external transducer and data acquisition was started. Blood pressure (systolic, diastolic, and mean arterial) and heart rate (derived from blood pressure) were monitored from at least 15 minutes prior to acute myocardial infarction (AMI) until at least 1 hour after reperfusion. Individual animal cardiovascular data tables are not reported but are maintained in the study file.

The test system of another data set is PC12 cells. In words: PC12 ischemic model (oxygen and glucose deprivation), cell death by LDH measurement. It is filed as cell-based. As to conditions: for protection percentile: protection from cell death, FIG. 6B: identical for both compounds. On the procedure: PC12 cells were grown in 25 cm^2 flasks in Dulbecco's modified Eagles Medium (DMEM), supplemented with 7% fetal bovine serum (FBS), 7% horse serum, […] penicillin and 100 μg/ml streptomycin. Cells were grown in humidified incubator 5% CO2, 95% air at 37° C. The medium was replaced every 2 days, and upon 70% confluence, the cells were counted and seeded for the ischemia experiments.
Approximately 1×10^6 PC12 cells/well were cultured and exposed to ischemia (oxygen and glucose deprivation=OGD) for 4.5 hr. Prior to the exposure, the growth medium was replaced with glucose-free DMEM (1 ml/well). Ischemia was performed in a closed chamber by replacement of air with 95% nitrogen/5% CO2.
Ischemic stress injury was characterized by lactate dehydrogenase (LDH) released from cells. After 4.5 hr of ischemia, a 50 μl sample of supernatant was taken from each well for LDH measurement. At the end of the ischemic insult (after 4.5 hr), glucose (at final concentration of 4.5 g/L by adding 10 μl from stock solution of 450 mg/ml per well (1 ml)) was added to the plates which underwent ischemia. The plates were then transferred to a humidified incubator and exposed to 95% air/5% CO2 at 37° C. for additional 18 hr of reoxygenation. DMEM supernatant samples (25 μl/well) were collected from each well for LDH measurements. The samples were centrifuged at 3500 rpm for 5 min, and 5 μl aliquots of supernatant was taken for LDH measurement.
For every experiment, a duplicate plate was prepared as a control study under normoxia. Cells were kept in a humidified incubator (5% CO2 and 95% air at 37° C.) in cell culture complete medium at a volume of 1 ml for 18 hr, and the same compounds were added with the same concentrations. Supernatant was collected for LDH measurement as indicated in the LDH activity measurement section below. Afterwards (at the end of the reoxygenation phase), the plates were frozen (at −70° C. for 30 min) and thawed once. 25 μl/well sample was collected and the samples were centrifuged at 3500 rpm for 5 min and then taken for LDH measurement (total).
LDH activity was determined using LDH-L kit (Pointe Scientific Inc., Michigan, USA) in the PC12 cell medium. Medium samples (5 μl) were collected at the end of the ischemic insult (after 4.5 hr) and after the reoxygenation period. In parallel, samples from the plates exposed to normoxia were collected. LDH enzymatic activity was measured in a spectrophotometer at a wavelength of 340 nm at 37° C. Data analysis was performed as follows: [OD (cycle 3)−OD (cycle 1)experiment]−[OD(3)−OD(1) control])/[OD(3)−OD(1) total]×100, and presented as percentage of total cell death.
One day before the experiment, 12-well plates were coated with 200 μg/ml type I rat tail collagen (BD Biosciences, Bedford, Mass.) and were further sterilized under UV. 1×10^6 PC12 undifferentiated cells/well were seeded on the plates and allowed to adhere overnight under regular conditions (DMEM medium high glucose 4.5 mg/ml, 5% CO2 and 95% air at 37° C.). Each experiment included 4 plates, two for normoxia and two for ischemia which underwent the same following treatment for all 4 plates.
A half hour before the onset of the ischemic insult, the antioxidant Tempol (4-hydroxy-2,2,6,6-tetramethylpiperidine-1-oxyl) (Sigma, St. Louis, Mo.) at a concentration of 0.5 mM (10 μl/well taken from a 8.6 mg/ml stock solution) or TPEN at a concentration of 3 μM and 10 μM were added to the plates. Before the experiments, the medium was replaced with DMEM glucose free medium at 1 ml volume/well. TPEN or 10 μl Tempol were again added to the appropriate wells and was maintained throughout all experiments.
Thereafter, the plates were introduced into a device inducing ischemia atmosphere with 95% nitrogen and 5% CO2 for 4.5 hr. Oxygen level was monitored online by a digital oxygen monitor showing up to 1%. At the end of OGD, 25 μl from each well was collected into 0.5 ml tubes for the LDH assay. […]

In the case of `c1c[nH]c(CN(CCN(Cc2ncc[nH]2)Cc2ncc[nH]2)Cc2ncc[nH]2)n1` [Compound #4], in data set [1], the “protective effect against hypoxic insult (LDH release) compared with TPEN, FIG. 1A” value was “only slightly more effective than TPEN”.
For the compound “EPO: positive control article, erythropoietin [reference compound]”, the “cardiac damage compared to saline control animals, in words” value in data set [2] is on record as “significantly less cardiac damage”. In data set [2] (4 hour reperfusion, rat), the “Infarct/AAR (%) Mean” value is recorded as 22^b %. The “Infarct/LV (%) Mean” value in data set [2] (rat) turned out to be 8%. Also, the “mean arterial pressures after reperfusion” value in data set [3] is recorded as “increased”.
In the case of `c1ccc(CN(CCN(Cc2ccccn2)Cc2ccccn2)Cc2ccccn2)nc1` [TPEN, N,N,N′,N′-tetrakis-(2-pyridylmethyl)-ethylenediamine, reference compound], in the data set with PC12 cells (10 μM, 4.5 hours ischemia), the “reducing death of PC12 cells subjected to ischemia (LDH), FIG. 2” value is reported as “effective”. The “reducing death of PC12 cells, comparison vs. Tempol, FIG. 2” value in the data set with PC12 cells (TPEN 10 μM vs Tempol 0.5 mM, 4.5 hours ischemia) is “significantly effective vs. Tempol”. Further, the “protection percentile: protection from cell death, FIG. 6B” value with PC12 cells (first of two selected concentrations (not given)) is recorded as 7%; in the data set with PC12 cells (second of two selected concentrations (not given)), 19%.
